Data from publication PMC8286840, “Identifying SARS-CoV-2 antiviral compounds by screening for small molecule inhibitors of Nsp3 papain-like protease” (Biochemical Journal, 2021).
Counter-ions that a name gives are not always drawn. Like-named read-outs stand apart in the source and are kept apart here.

Assays:
[1] = target: T1, SARS-CoV-2 PLpro (nsp3 1564–1878) (Severe acute respiratory syndrome coronavirus 2, UniProt P0DTD1); assay: biochemical; set-up: FRET-quenched peptide (Pro3) cleavage by PLpro, 10 min pre-incubation, slope over 20 min, normalised to no-compound control; settings: low concentration screen, read-out: % of control remaining
[2] = target: T1, SARS-CoV-2 PLpro (nsp3 1564–1878); assay: biochemical; set-up: FRET-quenched peptide (Pro3) cleavage by PLpro, 10 min pre-incubation, slope over 20 min, normalised to no-compound control; settings: high concentration screen, read-out: % of control remaining

Compound: NC(N)=Nc1nc(CSCC/C(N)=N/S(N)(=O)=O)cs1 [FAMOTIDINE]
- remaining activity at 1.25 µM ([1]; Well no.=471): 103%
- remaining activity at 1.25 µM ([1]; Well no.=1740): 101%
- remaining activity at 1.25 µM ([1]; Well no.=6622): 104%
- remaining activity at 3.75 µM ([2]; Well no.=471): 104%
- remaining activity at 3.75 µM ([2]; Well no.=1740): 101%
- remaining activity at 3.75 µM ([2]; Well no.=6622): 106%

Compound: Cc1nc(C(=O)NCC(=O)O)c(O)c2ccc(Oc3ccccc3)cc12 [FG-4592]
- remaining activity at 1.25 µM ([1]; Well no.=4995): 102%
- remaining activity at 3.75 µM ([2]; Well no.=4995): 105%

Compound: Cc1cc([N+](=O)[O-])ccc1NS(=O)(=O)c1cc(Cl)ccc1Cl [FH535]
- remaining activity at 1.25 µM ([1]; Well no.=8814): 96.3%
- remaining activity at 3.75 µM ([2]; Well no.=8814): 98.3%

Compound: O=S(=O)(NC1CCCCC1)c1ccc2c(c1)C(=NO)c1cc(S(=O)(=O)NC3CCCCC3)ccc1-2 [FIN56]
- remaining activity at 1.25 µM ([1]; Well no.=6740): 99.6%
- remaining activity at 1.25 µM ([1]; Well no.=8726): 93.4%
- remaining activity at 3.75 µM ([2]; Well no.=6740): 97.8%
- remaining activity at 3.75 µM ([2]; Well no.=8726): 94.6%

Compound: C=CC[C@@H]1/C=C(\C)C[C@H](C)C[C@H](OC)[C@H]2O[C@@](O)(C(=O)C(=O)N3CCCC[C@H]3C(=O)O[C@H](/C(C)=C/[C@@H]3CC[C@@H](O)[C@H](OC)C3)[C@H](C)[C@@H](O)CC1=O)[C@H](C)C[C@@H]2OC [FK-506 (Tacrolimus)]
- remaining activity at 1.25 µM ([1]; Well no.=5168): 94%
- remaining activity at 3.75 µM ([2]; Well no.=5168): 97.7%

Compound: Cc1ccc(C(=O)COC(=O)c2cccc(NC(=O)c3ccc([N+](=O)[O-])cc3[N+](=O)[O-])c2)cc1 [FM19G11]
- remaining activity at 1.25 µM ([1]; Well no.=5606): 93.7%
- remaining activity at 3.75 µM ([2]; Well no.=5606): 96.9%

Compound: COC(=O)c1c(C)[nH]c(C)c1C(=O)c1ccccc1Cc1ccccc1 [FPL 64176]
- remaining activity at 1.25 µM ([1]; Well no.=713): 97.6%
- remaining activity at 3.75 µM ([2]; Well no.=713): 94.1%

Compound: COC(=O)[C@H](CCSC)NC(=O)c1ccc(NC[C@@H](N)CS)cc1-c1ccccc1 [FTI-277 (hydrochloride)]
- remaining activity at 1.25 µM ([1]; Well no.=8508): 101%
- remaining activity at 3.75 µM ([2]; Well no.=8508): 102%

Compound: CC(=O)OCC(CCn1cnc2cnc(N)nc21)COC(C)=O [Famciclovir]
- remaining activity at 1.25 µM ([1]; Well no.=2074): 101%
- remaining activity at 3.75 µM ([2]; Well no.=2074): 104%

Compound: CC(C)=CCC/C(C)=C/CC/C(C)=C/CSc1ccccc1C(=O)O [Farnesylthiosalicylic acid]
- remaining activity at 1.25 µM ([1]; Well no.=567): 102%
- remaining activity at 3.75 µM ([2]; Well no.=567): 102%

Compound: O=C1c2ccccc2-[n+]2ccc3c([nH]c4ccccc43)c21 [Fascaplysin, Synthetic]
- remaining activity at 1.25 µM ([1]; Well no.=2458): 89%
- remaining activity at 3.75 µM ([2]; Well no.=2458): 82.7%

Compound: O=S(=O)(c1cccc2cnccc12)N1CCCNCC1 [Fasudil hydrochloride - 1-(5-Isoquinolinesulfonyl)homopiperazine hydrochloride]
- remaining activity at 1.25 µM ([1]; Well no.=2338): 97.4%
- remaining activity at 3.75 µM ([2]; Well no.=2338): 99%

Compound: CCCc1cc(-c2nc(-c3ccc(C)cc3)cs2)ccn1 [Fatostatin HBr]
- remaining activity at 1.25 µM ([1]; Well no.=8822): 94.2%
- remaining activity at 3.75 µM ([2]; Well no.=8822): 92.8%

Compound: NC(=O)OCC(COC(N)=O)c1ccccc1 [Felbamate]
- remaining activity at 1.25 µM ([1]; Well no.=609): 101%
- remaining activity at 1.25 µM ([1]; Well no.=1543): 102%
- remaining activity at 3.75 µM ([2]; Well no.=609): 104%
- remaining activity at 3.75 µM ([2]; Well no.=1543): 101%

Compound: CCOC(=O)C1=C(C)NC(C)=C(C(=O)OC)C1c1cccc(Cl)c1Cl (centres unmarked) [Felodipine]
- remaining activity at 1.25 µM ([1]; Well no.=521): 106%
- remaining activity at 1.25 µM ([1]; Well no.=1757): 99.7%
- remaining activity at 3.75 µM ([2]; Well no.=1757): 102%

Compound: COC(=O)Nc1nc2cc(Sc3ccccc3)ccc2[nH]1 [Fenbendazole]
- remaining activity at 1.25 µM ([1]; Well no.=2076): 105%
- remaining activity at 3.75 µM ([2]; Well no.=2076): 102%

Compound: O=C(O)CCC(=O)c1ccc(-c2ccccc2)cc1 [Fenbufen]
- remaining activity at 1.25 µM ([1]; Well no.=2078): 100%
- remaining activity at 3.75 µM ([2]; Well no.=2078): 102%

Compound: CC(C)OC(=O)C(C)(C)Oc1ccc(C(=O)c2ccc(Cl)cc2)cc1 [Fenofibrate]
- remaining activity at 1.25 µM ([1]; Well no.=421): 97.6%
- remaining activity at 1.25 µM ([1]; Well no.=2084): 99.9%
- remaining activity at 3.75 µM ([2]; Well no.=421): 101%
- remaining activity at 3.75 µM ([2]; Well no.=2084): 102%

Compound: CC(C)(Oc1ccc(C(=O)c2ccc(Cl)cc2)cc1)C(=O)O [Fenofibric acid]
- remaining activity at 1.25 µM ([1]; Well no.=8204): 106%
- remaining activity at 3.75 µM ([2]; Well no.=8204): 104%

Compound: Oc1ccc(C2CNCCc3c2cc(O)c(O)c3Cl)cc1 (centres unmarked) [Fenoldopam (mesylate)]
- remaining activity at 1.25 µM ([1]; Well no.=6267): 106%
- remaining activity at 3.75 µM ([2]; Well no.=6267): 103%

Compound: Oc1ccc(C2CNCCc3c2cc(O)c(O)c3Cl)cc1 (centres unmarked) [Fenoldopam bromide]
- remaining activity at 1.25 µM ([1]; Well no.=757): 98.2%
- remaining activity at 3.75 µM ([2]; Well no.=757): 96.8%

Compound: CC(C(=O)O)c1cccc(Oc2ccccc2)c1 (centres unmarked) [Fenoprofen]
- remaining activity at 1.25 µM ([1]; Well no.=2082): 98.6%
- remaining activity at 3.75 µM ([2]; Well no.=2082): 99.2%

Compound: CC(Cc1ccc(O)cc1)NCC(O)c1cc(O)cc(O)c1 (centres unmarked) [Fenoterol hydrobromide]
- remaining activity at 1.25 µM ([1]; Well no.=705): 104%
- remaining activity at 3.75 µM ([2]; Well no.=705): 100%

Compound: CC1=C(/C=C/C(C)=C/C=C/C(C)=C/C(=O)Nc2ccc(O)cc2)C(C)(C)CCC1 [Fenretinide]
- remaining activity at 1.25 µM ([1]; Well no.=1577): 92.1%
- remaining activity at 3.75 µM ([2]; Well no.=1577): 92.2%

Compound: O=C1NCC2(CCN(CCc3ccccc3)CC2)O1 [Fenspiride (Hydrochloride)]
- remaining activity at 1.25 µM ([1]; Well no.=6705): 104%
- remaining activity at 3.75 µM ([2]; Well no.=6705): 100%

Compound: O=C1NCC2(CCN(CCc3ccccc3)CC2)O1 [Fenspiride hydrochloride]
- remaining activity at 1.25 µM ([1]; Well no.=469): 99.1%
- remaining activity at 3.75 µM ([2]; Well no.=469): 103%

Compound: O=C(O)Cc1sc(-c2ccccc2)nc1-c1ccc(Cl)cc1 [Fentiazac]
- remaining activity at 1.25 µM ([1]; Well no.=1772): 100%
- remaining activity at 3.75 µM ([2]; Well no.=1772): 97.2%

Compound: Clc1ccc(C(Cn2ccnc2)OCc2ccc(Sc3ccccc3)cc2)c(Cl)c1 (centres unmarked) [Fenticonazole nitrate]
- remaining activity at 1.25 µM ([1]; Well no.=5044): 96.2%
- remaining activity at 3.75 µM ([2]; Well no.=5044): 95.9%

Compound: C/C1=C/CCC(C)(O)/C=C\C(C(C)C)C(OC(=O)c2ccc(O)cc2)C1 (centres unmarked) [Feroline]
- remaining activity at 1.25 µM ([1]; Well no.=3493): 101%
- remaining activity at 3.75 µM ([2]; Well no.=3493): 99.5%

Compound: CCOC(=O)c1ccc(NC2CCCCC2)c(N)c1 [Ferrostatin-1]
- remaining activity at 1.25 µM ([1]; Well no.=6252): 103%
- remaining activity at 3.75 µM ([2]; Well no.=6252): 98%

Compound: COc1cc(/C=C/C(=O)O)ccc1O [Ferulic acid (sodium)]
- remaining activity at 1.25 µM ([1]; Well no.=8535): 107%
- remaining activity at 3.75 µM ([2]; Well no.=8535): 106%

Compound: CCOC(=O)/C=C/c1ccc(O)c(OC)c1 [Ferulic acid ethylester]
- remaining activity at 1.25 µM ([1]; Well no.=3853): 97.6%
- remaining activity at 3.75 µM ([2]; Well no.=3853): 103%

Compound: COc1cc(/C=C/C(=O)O)ccc1O [Ferulic acid]
- remaining activity at 1.25 µM ([1]; Well no.=3518): 98.9%
- remaining activity at 3.75 µM ([2]; Well no.=3518): 100%
